Results taken from patent publication US20110306579A1, “METHODS OF NEUROPROTECTION USING NEUROPROTECTIVE STEROIDS AND A VITAMIN D” (EMORY UNIVERSITY, priority 2009, published 2011).

Test system: E18 rat primary cortical neurons
Experiment: Glutamate-induced excitotoxic cell death (LDH release and MTT reduction assays)
Format: cell-based
Source text: Lactate dehydrogenase (LDH) release and 3-(4,5-dimethylthiazol-2-yl)-2,5-diphenyltetrazolium bromide (MTT) reduction assays were used to measure cell death. NeuroPureTM E18 primary rat cortical cells were commercially procured (Catalogue # N200200, Genlantis, San Diego, Calif., USA) as micro-surgically dissected regions from day 18 embryonic Sprague-Dawley rat brain. The tissues were processed for culturing according to manufacturer specifications. Briefly, enzymatic pre-treatment of the tissue was done prior to mechanical dissociation by incubating the tissues in sterile NeuroPapain enzyme solution at 30° C. for 30 minutes. Following incubation, the cells were centrifuged and transferred to fresh plating medium, where they were then dissociated into isolated neurons using a P-1000 pipettor with a sterile 1 ml plastic tip (0.8-1.0 mm diameter opening). The cells were again centrifuged and seeded in multi-well plates pre-coated with poly-D-lysine (0.15 ml/cm^2, 50 μg/ml) and maintained at 37° C. in a humidified 5% CO2 atmosphere. All experiments were performed after 9-10 days in culture. Twenty-four hours before glutamate exposure, cultures were pre-treated with both PROG (Cat. #P3972; Sigma Aldrich, St. Louis, Mo., USA) and VDH(Cat. #D1530; Sigma) separately or in combination with VDH at various concentrations. Stock solutions of PROG and VDH were prepared in dimethylsulfoxide (DMSO; Cat. #D2650; […] Glutamate was diluted in phosphate-buffered saline (PBS, pH 7.4). All reagents were filter sterilized before being added to cultures. At Day 11, cortical neurons in fresh media were separated into five treatment groups: (i) control; (ii) 24 hour treatment with 0.5 μM glutamate (Sribnick E A, et al., (2004) J Neurosci Res 76: 688-696); ([…]) with subsequent exposure to glutamate for 24 hours; (iv) 24 hour pre-treatment with VDH (1, 5, 10, 20, 40, 80, 100 nM) with subsequent exposure to glutamate for 24 hours; (v) 24 hour pre-treatment with different combinations of PROG and […]: 20 μM+VDH: 1, 5, 10, 20, 40, 80, 100 nM) with subsequent exposure to glutamate for 24 hours. Two widely accepted assays (LDH release and MTT reduction assay) for the measurement of cell viability were used. These assays are considered very reliable and reproducible with high predictive validity and are widely used in various pharmacological studies ([…], et al., (2002) Endocrinology 143: 205-212.). The LDH assay was performed as follows. […] LDH activity was measured using a Cytotoxicity Detection Kit (Roche Molecular Biochemicals, Indianapolis, Ind., USA) and quantitated by measuring absorbance at 490 nm. Data were normalized against the amount of LDH activity released from vehicle-treated control cultures receiving no glutamate. Neuronal death was also assessed by MTT [3-(4,5-dimethylthiazol-2-yl)-2,5-diphenyltetrazolium bromide] assay, which is based on the cleavage of the tetrazolium ring of the pale yellow MTT into dark blue formazan crystals by mitochondrial dehydrogenase enzyme in viable cells. These blue formazan crystals accumulate within the cells due to their impermeability to cell membrane, and are then solubilized by adding DMSO. The intensity of blue colored formazan solution is directly proportional to the number of surviving cells. Concentrations were determined by photometric analysis. Briefly, 10 μl of MTT were added per well and incubated at 37° C. for 4 hours until purple precipitate was visible. DMSO (50 μl) was added to solubilize the crystals and the absorbance was read at 570 nm.

## CC(=O)[C@H]1CCC2C3CCC4=CC(=O)CC[C@]4(C)C3CC[C@@]21C (stereo partly drawn) [progesterone]
LDH and MTT assays
  best (most effective) concentration alone against glutamate-induced neuronal death: 20 µM
PROG at higher concentrations (10, 20, 40, and 80 μM), LDH and MTT assays, P<0.001
  glutamate-induced cell death compared to vehicle-only group: significant reduction
PROG at lower concentrations (0.01, 0.1, 1, 5 μM), 24 h pre-treatment, glutamate 0.5 μM 24 h
  glutamate-induced cell death compared to vehicle-only group: did not show any decrease in cell death
